Numbers after ± are expanded uncertainties.
Conditions: Liquid, Closed cell (Static) method

FCC(F)(F)F [1,1,1,2-tetrafluoroethane]
Conditions | vapor or sublimation pressure [kPa]
243.14 K | 84.1 ± 2
245.14 K | 92.4 ± 2
247.14 K | 101.4 ± 2
249.15 K | 111.1 ± 2
251.16 K | 121.4 ± 2
253.15 K | 132.5 ± 2
255.14 K | 144.3 ± 2
257.16 K | 157.1 ± 2
259.17 K | 170.6 ± 2
261.16 K | 185 ± 2
263.14 K | 200.2 ± 2
265.13 K | 216.4 ± 2
267.13 K | 233.7 ± 2
269.14 K | 252.1 ± 2
271.14 K | 271.6 ± 2
273.13 K | 292.1 ± 2.1
275.13 K | 313.9 ± 2.1
277.16 K | 337.2 ± 2.1
279.16 K | 361.5 ± 2.1
281.16 K | 387.3 ± 2.1
283.17 K | 414.3 ± 2.1
285.14 K | 442.1 ± 2.1
287.15 K | 472.3 ± 2.1
289.14 K | 503.4 ± 2.2
291.14 K | 536.3 ± 2.2
293.14 K | 570.9 ± 2.2

CCC [propane]
Conditions | vapor or sublimation pressure [kPa]
233.22 K | 111.3 ± 2
235.21 K | 121.3 ± 2
237.18 K | 131.7 ± 2
239.2 K | 143.2 ± 2
241.22 K | 155.4 ± 2
243.21 K | 168.2 ± 2
245.26 K | 182.1 ± 2
247.13 K | 195.6 ± 2
249.14 K | 211.1 ± 2
251.14 K | 227.4 ± 2
253.14 K | 244.5 ± 2
255.14 K | 262.5 ± 2
257.13 K | 281.5 ± 2.1
259.15 K | 301.8 ± 2.1
261.12 K | 322.7 ± 2.1
263.15 K | 345.3 ± 2.1
265.14 K | 368.6 ± 2.1
267.14 K | 393.2 ± 2.1
269.14 K | 419 ± 2.1
271.14 K | 446.1 ± 2.1
273.14 K | 474.3 ± 2.1
275.14 K | 503.9 ± 2.1
277.14 K | 535 ± 2.2
279.15 K | 567.4 ± 2.2
281.15 K | 601.4 ± 2.2
283.15 K | 636.7 ± 2.2
285.15 K | 673.5 ± 2.3
287.14 K | 711.8 ± 2.3
289.15 K | 752 ± 2.3
291.16 K | 793.7 ± 2.3
293.15 K | 836.8 ± 2.4

From the NIST ThermoML archive (doi:10.1016/j.jct.2010.11.001)
